For test [1], the target named is T1, glycine transporter-1 (GlyT-1) (Homo sapiens, UniProt P48067).
T1 construct: JAR cells (ATCC#HTB-144), which endogenously express GlyT-1; host or cells: JAR human choriocarcinoma cells
T1 sequence (P48067 1-706): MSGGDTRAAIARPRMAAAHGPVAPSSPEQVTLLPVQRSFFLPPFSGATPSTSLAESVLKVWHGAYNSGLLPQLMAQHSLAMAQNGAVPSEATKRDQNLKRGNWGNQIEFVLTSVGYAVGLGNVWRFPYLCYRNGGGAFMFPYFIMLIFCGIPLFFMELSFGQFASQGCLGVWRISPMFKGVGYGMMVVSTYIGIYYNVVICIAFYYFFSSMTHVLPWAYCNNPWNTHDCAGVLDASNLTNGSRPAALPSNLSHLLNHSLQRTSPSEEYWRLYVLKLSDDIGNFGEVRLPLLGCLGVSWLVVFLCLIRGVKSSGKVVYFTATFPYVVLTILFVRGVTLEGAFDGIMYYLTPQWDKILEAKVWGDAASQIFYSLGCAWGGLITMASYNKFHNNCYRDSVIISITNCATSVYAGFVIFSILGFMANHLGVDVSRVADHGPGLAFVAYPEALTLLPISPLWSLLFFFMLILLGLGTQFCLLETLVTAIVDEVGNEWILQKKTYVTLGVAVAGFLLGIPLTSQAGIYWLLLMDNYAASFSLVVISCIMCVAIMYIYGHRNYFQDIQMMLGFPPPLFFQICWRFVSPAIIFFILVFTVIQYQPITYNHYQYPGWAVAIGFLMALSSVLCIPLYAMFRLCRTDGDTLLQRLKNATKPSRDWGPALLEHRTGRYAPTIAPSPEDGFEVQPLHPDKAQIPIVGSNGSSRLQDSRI
The test can be described thus: [14C]glycine uptake assay in JAR cells endogenously expressing GlyT-1 (scintillation proximity). The format is cell-based. The essentials: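 Human choriocarcinoma JAR cells (endogenous GlyT-1) attached overnight, then pre-incubated 10 min at room temperature with compound in pH 7.4 Hepes uptake buffer containing 5 mM alanine and 0.75% DMSO. Uptake of 5 μM [14C]glycine over 3 h at 37 °C read by scintillation proximity; IC50 from four-parameter fit of nine-point curves.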

In test [2] the target is T2, glycine transporter-2 (GlyT-2) (Homo sapiens, UniProt Q9Y345).
T2 construct: expressed in transfected cells
T2 sequence (Q9Y345 1-797): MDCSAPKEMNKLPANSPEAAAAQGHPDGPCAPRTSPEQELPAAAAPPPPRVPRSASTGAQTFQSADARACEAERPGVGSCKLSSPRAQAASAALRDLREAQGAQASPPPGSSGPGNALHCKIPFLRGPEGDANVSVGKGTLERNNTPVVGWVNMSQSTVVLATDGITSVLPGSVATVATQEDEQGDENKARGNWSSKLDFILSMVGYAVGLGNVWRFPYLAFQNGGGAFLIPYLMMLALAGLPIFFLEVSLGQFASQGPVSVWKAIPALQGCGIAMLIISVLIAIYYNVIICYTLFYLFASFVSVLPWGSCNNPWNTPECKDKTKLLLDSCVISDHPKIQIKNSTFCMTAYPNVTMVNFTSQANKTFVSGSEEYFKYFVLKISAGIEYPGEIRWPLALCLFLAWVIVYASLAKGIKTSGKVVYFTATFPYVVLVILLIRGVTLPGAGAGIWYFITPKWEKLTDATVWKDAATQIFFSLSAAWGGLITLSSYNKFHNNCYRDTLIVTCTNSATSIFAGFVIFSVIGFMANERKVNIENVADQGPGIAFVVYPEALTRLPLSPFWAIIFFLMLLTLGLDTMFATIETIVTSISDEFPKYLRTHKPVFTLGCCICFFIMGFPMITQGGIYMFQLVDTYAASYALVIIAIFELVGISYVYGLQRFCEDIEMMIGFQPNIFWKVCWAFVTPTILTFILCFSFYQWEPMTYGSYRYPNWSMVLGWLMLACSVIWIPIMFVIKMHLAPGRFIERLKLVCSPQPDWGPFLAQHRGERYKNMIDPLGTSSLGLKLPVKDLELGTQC
The test can be described thus: [14C]glycine uptake assay in HEK-GlyT-2 transfected cells. The format is cell-based. The conditions noted are these: HEK-GlyT-2 cells.

Setting [3] is: JAR cells, [14C]glycine 5 μM, 3 hour incubation, read-out: GlyT-1 IC50.

Counter-ions that a name gives are not always drawn. Like-named read-outs stand apart in the source and are kept apart here.

In general, IC50 refers to the midpoint of a concentration-inhibition curve. For the molecule `CCCS(=O)(=O)N1CCN(C2(CNC(=O)c3ccc(F)cc3Cl)CCCCC2)CC1` [compound 12, 2-Chloro-4-fluoro-N-((1-(4-(propylsulfonyl)piperazin-1-yl)cyclohexyl)methyl) benzamide Hydrochloride], the half-inhibitory concentration (IC50) in test [1] (setting [3]) was 63 nM; in test [2], over 75 µM.
With `CCCS(=O)(=O)N1CCN(C2(CNC(=O)c3cc(Cl)ccc3Cl)CCCCC2)CC1` [compound 32, 2,5-Dichloro-N-((1-(4-(propylsulfonyl)piperazin-1-yl)cyclohexyl)methyl) benzamide Hydrochloride], the values for the IC50 in test [1] (setting [3]) and in test [2] were 71 nM and over 75 µM, respectively.
The corresponding values for `Cn1cc(S(=O)(=O)N2CCN(C3(CNC(=O)c4ccc(C(F)(F)F)cc4F)CCC(F)(F)CC3)CC2)nn1` [compound 232, N-((4,4-Difluoro-1-(4-(1-methyl-1H-1,2,3-triazol-4-ylsulfonyl)piperazin-1-yl)cyclohexyl)methyl)-2-fluoro-4-(trifluoromethyl)benzamide Hydrochloride] are 6 nM and over 75 µM.
Regarding `Cn1cnc(S(=O)(=O)N2CCN(C3(CNC(=O)c4c(N)cccc4Cl)CCCCC3)CC2)c1` [compound 99, 2-Amino-6-chloro-N-((1-(4-(1-methyl-1H-imidazol-4-ylsulfonyl)piperazin-1-yl)cyclohexyl)methyl) benzamide Hydrochloride], the IC50 was 2 nM in test [1] (setting [3]) and over 75 µM in test [2].
The corresponding values for `Nc1cccc(Cl)c1C(=O)NCC1(N2CCN(S(=O)(=O)c3ccccc3)CC2)CCCCC1` [compound 89, 2-Amino-6-chloro-N-((1-(4-(phenylsulfonyl)piperazin-1-yl)cyclohexyl)methyl) benzamide Hydrochloride] are 2290 nM and over 75 µM.
In the case of `CCCS(=O)(=O)N1CCN(C2(CNC(=O)c3c(F)cc(F)cc3F)CCCCC2)CC1` [compound 48, 2,4,6-Trifluoro-N-((1-(4-(propylsulfonyl)piperazin-1-yl)cyclohexyl)methyl) benzamide Hydrochloride], the figures for the IC50 in test [1] (setting [3]) and in test [2] were 16 nM and over 75 µM, respectively.
For the molecule `CCCS(=O)(=O)N1CCN(C2(CNC(=O)c3c(OC)cc(F)cc3SC)CCCCC2)CC1` [compound 20, 4-Fluoro-2-methoxy-6-(methylthio)-N-((1-(4-(propylsulfonyl)piperazin-1-yl)cyclohexyl)methyl)benzamide Hydrochloride], the IC50 in test [1] (GlyT-1 IC50 (nM)) was 6 nM; in test [2], over 75 µM.
For `CCCS(=O)(=O)N1CCN(C2(CNC(=O)c3c(F)cccc3OC)CCCCCC2)CC1` [compound 55, 2-Fluoro-6-methoxy-N-((1-(4-(propylsulfonyl)piperazin-1-yl)cycloheptyl)methyl) benzamide Hydrochloride], the results for the IC50 in test [1] (setting [3]) and in test [2] were 14 nM and over 75 µM, respectively.
`CCCS(=O)(=O)N1CCN(C2(CNC(=O)c3ccc(Cl)cc3Cl)CCC(F)(F)CC2)CC1` [compound 136, 2,4-Dichloro-N-((4,4-difluoro-1-(4-(propylsulfonyl)piperazin-1-yl)cyclohexyl)methyl) benzamide Hydrochloride]: the values for the IC50 in test [1] (setting [3]) and in test [2] were 36 nM and over 75 µM, respectively.
Regarding `CCCS(=O)(=O)N1CCN(C2(CNC(=O)c3c(OC)cc(F)cc3SC)CCCC2)CC1` [compound 74, 4-Fluoro-2-methoxy-6-(methylthio)-N-((1-(4-(propylsulfonyl)piperazin-1-yl)cyclopentyl)methyl) benzamide Hydrochloride], the 50% inhibitory concentration (IC50) in test [1] (setting [3]) is 131 nM; in test [2] it was over 75 µM.
Regarding `CCCS(=O)(=O)N1CCN(C2(CNC(=O)c3ccc(Cl)cc3Cl)CCCCC2)CC1` [compound 2, 2,4-Dichloro-N-((1-(4-(propylsulfonyl)piperazin-1-yl)cyclohexyl)methyl)benzamide Hydrochloride], the IC50 in test [1] (setting [3]) came to 22 nM; in test [2] it was 22.7 µM.
The corresponding values for `CCCS(=O)(=O)N1CCN(C2(CNC(=O)c3ccc(C(F)(F)F)cc3Cl)CCC(F)(F)CC2)CC1C` (stereo not shown) [compound 256, 2-Chloro-N-((4,4-difluoro-1-(3-methyl-4-(propylsulfonyl)piperazin-1-yl)cyclohexyl)methyl)-4-(trifluoromethyl) benzamide Hydrochloride] are 133 nM and over 75 µM.
As to `CCCS(=O)(=O)N1CCN(C2(CNC(=O)c3ccc(C#N)cc3)CCCCC2)CC1` [compound 17, 4-Cyano-N-((1-(4-(propylsulfonyl)piperazin-1-yl)cyclohexyl)methyl) benzamide Hydrochloride], the IC50 in test [1] (setting [3]) was 647 nM; in test [2] it was over 75 µM.
For the molecule `Cn1cnc(S(=O)(=O)N2CCN(C3(CNC(=O)c4c(F)cc(F)cc4F)CCC(F)(F)CC3)CC2)c1` [compound 167, N-((4,4-Difluoro-1-(4-(1-methyl-1H-imidazol-4-ylsulfonyl)piperazin-1-yl)cyclohexyl)methyl)-2,4,6-trifluorobenzamide Hydrochloride], the half-maximal inhibitory concentration (IC50) in test [1] (setting [3]) was 11 nM; in test [2], over 75 µM.
Regarding `COc1cccc(F)c1C(=O)NCC1(N2CCN(S(=O)(=O)c3cn(C)cn3)CC2)CCCCC1` [compound 96, 2-Fluoro-6-methoxy-N-((1-(4-(1-methyl-1H-imidazol-4-ylsulfonyl)piperazin-1-yl)cyclohexyl)methyl) benzamide Hydrochloride], the half-inhibitory concentration (IC50) in test [1] (setting [3]) is 2 nM; in test [2], over 75 µM.
On to `CCCS(=O)(=O)N1CCN(C2(CNC(=O)c3ccc(Br)cc3C)CCCCC2)CC1` [compound 18, 4-Bromo-2-methyl-N-((1-(4-(propylsulfonyl)piperazin-1-yl)cyclohexyl)methyl) benzamide Hydrochloride], for which the IC50 in test [1] (setting [3]) is 28 nM; in test [2] it was over 75 µM.
The corresponding values for `CCCS(=O)(=O)N1CCN(C2(CNC(=O)c3ccc(Cl)cc3C(F)(F)F)CCC(F)(F)CC2)CC1` [compound 245, 4-Chloro-N-((4,4-difluoro-1-(4-(propylsulfonyl)piperazin-1-yl)cyclohexyl)methyl)-2-(trifluoromethyl)benzamide Hydrochloride] are 18 nM and over 75 µM.
The corresponding values for `O=C(NCC1(N2CCN(S(=O)(=O)CC3CC3)CC2)CCCOC1)c1c(F)cccc1F` (stereo not shown) [compound 126, N-((3-(4-(Cyclopropylmethyl-sulfonyl)piperazin-1-yl)tetrahydro-2H-pyran-3-yl)methyl)-2,6-difluorobenzamide Hydrochloride] are 724 nM and over 75 µM.
`Cn1cc(S(=O)(=O)N2CCN(C3(CNC(=O)c4ccc(Cl)cc4Cl)CCOCC3)CC2)nn1` [compound 129, 2,4-Dichloro-N-((4-(4-(1-methyl-1H-1,2,3-triazol-4-ylsulfonyl)piperazin-1-yl)tetrahydro-2H-pyran-4-yl)methyl)benzamide Hydrochloride]: the 50% inhibitory concentration (IC50) in test [1] (setting [3]) was 11 nM; in test [2] it was over 75 µM.
The corresponding values for `CC(NC(=O)c1ccc(C(F)(F)F)cc1C(F)(F)F)C1(N2CCN(S(=O)(=O)c3cn(C)nn3)CC2)CCC(F)(F)CC1` (stereo not shown) [compound 225, N-(1-(4,4-Difluoro-1-(4-(1-methyl-1H-1,2,3-triazol-4-ylsulfonyl)piperazin-1-yl)cyclohexyl)ethyl)-2,4-bis(trifluoromethyl) benzamide Hydrochloride] are 28 nM and over 75 µM.

For the origin of these results see US9045445B2, “Glycine transporter-1 inhibitors, methods of making them, and uses thereof” (Albany Molecular Research, Inc., priority 2010, dated 2015).
